Assay results published in patent publication US20250064834A1, “COMPOSITIONS AND METHODS FOR TREATMENT AND PREVENTION OF DISEASES UTILIZING TIRILAZAD SALTS” (priority 2022, published 2025).

Tested on: mini-explants from the dermoepidermal junction of the hoof
Experiment: In vitro study of hoof laminar mini-explants pre-incubated with tirilazad, then Bothrops alternatus venom, as a model for laminitis; histopathology (H-E, PAS)
Type: cell-based
Protocol: An in vitro study was conducted to analyze the protective effects of tirilazad mesylate on cellular degeneration as a result of Bothrops alternatus snake venom as a model for laminitis. Explant tissue samples were obtained from the dermoepidermal junction of the hoof of the right forelimb under nervous system block without the need for euthanasia.
Under sterile conditions, laminar cuts (mini-explants) were made of each explant and the tissue washed with physiological solution. The mini-explants were pre-incubated for 5 hours with tirilazad and then for 24 hours with Bothrops venom. Culture medium was as follows: Dulbecco's […] (DMEM, GIBCO-Invitrogen) with 10% heat-inactivated fetal bovine serum (FBS, GIBCO-Invitrogen), L-Glutamine (29.2 mg/mL), Penicillin (10,000 units/mL), and Streptomycin (10,000 μg/mL, GIBCO-Invitrogen) as antibiotics.
Histopathology: Tissues were processed with classical histological techniques, e.g., cutting by microtome (Minot) and stained with hematoxylin-eosin (H-E) and Periodic Acid Schiff (PAS) stains.

[1] = Tirilazad 1 μM (5 hours pre-incubation) + venom 75 μg/ml (24 hours), listed as tirilazad
[2] = Tirilazad 1 μM, no venom, listed as tirilazad
[3] = Tirilazad 3 μM (5 hours pre-incubation) + venom 75 μg/ml (24 hours)
[4] = Tirilazad 3 μM, no venom, listed as tirilazad
[5] = Tirilazad 10 μM (5 hours pre-incubation) + venom 75 μg/ml (24 hours), listed as tirilazad
[6] = Tirilazad 10 μM, no venom, listed as tirilazad
[7] = Tirilazad 20 μM (5 hours pre-incubation) + venom 75 μg/ml (24 hours)

C[C@@H]1C[C@H]2[C@@H]3CCC4=CC(=O)C=C[C@]4(C)C3=CC[C@]2(C)[C@H]1C(=O)CN1CCN(c2cc(N3CCCC3)nc(N3CCCC3)n2)CC1 [Tirilazad, 16α-methyl-21-[4-[2,6-bis(1-pyrrolidinyl)-4-pyrimidinyl]-1-piperazinyl]pregna-1,4,9(11)-triene-3,20-dione]
Separation of Basement Membrane (Tirilazad 1 μM (5 hours pre-incubation) + venom 75 μg/ml (24 hours)): No | Cell Nuclei [1]: intense presence of altered epidermal cells | Pyknosis or Karyopyknosis [1]: with nuclear pyknosis | Separation of Basement Membrane [1]: did not show separation of the basement membrane | Pyknosis or Karyopyknosis (Tirilazad 1 μM, no venom): No | Separation of Basement Membrane (Tirilazad 1 μM, no venom): No | Cell Nuclei [2]: epidermal cells were normal and showed preserved cytoplasmic and nuclear structure | Separation of Basement Membrane [2]: did not show separation of the basement membrane | Cell Nuclei [3]: intense presence of altered epidermal cells | Pyknosis or Karyopyknosis [3]: nuclear pyknosis predominating | Separation of Basement Membrane [3]: slight separation of the basement membrane | Separation of Basement Membrane (Tirilazad 3 μM, no venom): No | Cell Nuclei [4]: slight epidermal cytoplasmic and nuclear alteration | Separation of Basement Membrane [4]: did not show separation of the basement membrane | Separation of Basement Membrane (Tirilazad 10 μM (5 hours pre-incubation) + venom 75 μg/ml (24 hours)): No | Cell Nuclei [5]: Moderate presence of altered epidermal cells | Pyknosis or Karyopyknosis [5]: moderate nuclear pyknosis | Separation of Basement Membrane [5]: did not show separation of the basement membrane | Pyknosis or Karyopyknosis (Tirilazad 10 μM, no venom): No | Separation of Basement Membrane (Tirilazad 10 μM, no venom): No | Cell Nuclei [6]: epidermal cells were normal and showed preserved cytoplasmic and nuclear structure | Separation of Basement Membrane [6]: did not show separation of the basement membrane | Cell Nuclei [7]: intense presence of altered epidermal cells | Pyknosis or Karyopyknosis [7]: intense nuclear pyknosis | Separation of Basement Membrane [7]: intense separation of the basement membrane | Cell Nuclei (Tirilazad 20 μM, no venom): epidermal cells were normal and showed preserved cytoplasmic and nuclear structure | Pyknosis or Karyopyknosis (Tirilazad 20 μM, no venom): No | Separation of Basement Membrane (Tirilazad 20 μM, no venom): intense separation of the basement membrane | effect on cellular structure in hoof tissue (overall conclusion of the explant study): provides a protective and/or therapeutic effect
